Measured values taken from article PMC10714399, “Open Source Antibiotics: Simple Diarylimidazoles Are Potent against Methicillin-Resistant Staphylococcus aureus” (ACS Infectious Diseases, 2023).
Values after ≈ are worked out from the molar mass of the structure shown. Where two headings read alike, the source gives them in different places.

How the values were obtained:
[1] = system: S. aureus ATCC 25923 (methicillin-susceptible); experiment: In vitro antibacterial activity, MIC (UCL), MSSA; type: cell-based, Staphylococcus aureus; conditions: Staphylococcus aureus
How it was run: (§1)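 Strains: MRSA NCTC 13373, MSSA ATCC 25923, vanA E. faecalis ATCC 51299. Overnight agar growth suspended in PBS, A600 0.1, diluted 1:100 into isosensitest broth; 2-fold compound dilutions 32–0.03 μg/mL, ≤2% DMSO. Vancomycin QC.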

[2] = Aqueous solubility; type: physicochemical; conditions: for solubility: thermodynamic from solid
[3] = system: Enterococcus faecalis ATCC 51299 (vanA-positive; vancomycin-resistant); experiment: In vitro antibacterial activity, MIC (UCL), VRE; type: cell-based
How it was run: as §1

[4] = In vitro metabolic stability, human liver microsomes (Monash); type: in vitro ADME
Protocol: (§2) The metabolic stability assay was performed by incubating each test compound with a suspension of liver microsomes (0.4 mg/mL protein, 1 μM substrate, 37 °C). Microsomes were purchased from XenoTech. The metabolic reaction was initiated by the addition of an NADPH-regenerating system and quenched at various time points over a 60 min incubation by the addition of acetonitrile containing metolazone as an internal standard. Control samples (containing no NADPH) were included (quenched at 2, 30, and 60 min) to monitor for potential degradation in the absence of cofactor. […]
(§3) d) In Vitro Metabolic Stability
(§4) The metabolic stability assay was performed by incubating each test compound with a suspension of liver
(§5) microsomes (0.4 mg/mL, 37°C). The metabolic reaction was initiated by the addition of an NADPH-regenerating
(§6) system and quenched at various time points over a 60 minute incubation by the addition of acetonitrile containing
(§7) metolazone as internal standard. Control samples (containing no NADPH) were included (quenched at 2, 30 and 60
(§8) minutes) to monitor for potential degradation in the absence of cofactor.
(§9) The human liver microsomes used in this experiment were supplied by XenoTech, lot # 1710084.The rat liver
(§10) microsomes used in this experiment were supplied by XenoTech, lot # 1610290. Microsomal incubations were
(§11) performed at a substrate concentration of 1 µM.
(§12) Data analysis and interpretation:
(§13) Substrate depletion as a function of time was analysed as described by Obach (1999) Drug Metab. Dispos., 27:1350-
(§14) 1359. Intrinsic clearance (CLint) values were classified at the limits of low and high clearance bands based on a
(§15) rearrangement of the well stirred model of hepatic elimination. It should be noted that the potential impact of
(§16) compound binding (either in microsomes or in blood) on the relationship between in vitro intrinsic clearance and
(§17) hepatic clearance in vivo has not been accounted for in these studies.
(§18) In Vitro Intrinsic Clearance
(§19) Species (µL/min/mg protein)
(§20) Low Clearance High Clearance
(§21) Experimental results are tabulated on the following page(s).
(§22) (1 picture or pasted object on this page, not shown here)

[5] = Human plasma protein binding (PPB); type: in vitro ADME; conditions: human, plasma
[6] = In vitro metabolic stability, rat liver microsomes (Monash); type: in vitro ADME
Protocol: as §2, §3, §4, §5, §6, §7, §8, §9, §10, §11, §12, §13, §14, §15, §16, §17, §18, §19, §20, §21, §22

[7] = Kinetic solubility estimation using nephelometry (Monash); type: physicochemical; conditions: for solubility kinetic at 30 min: kinetic from dmso stock
Protocol: Compound in DMSO was spiked into either pH 6.5 phosphate buffer or 0.01 M HCl (approximately pH 2.0) with the final DMSO concentration being 1%. […]
b) Kinetic Solubility Estimation using Nephelometry (SolpH)
Compound in DMSO was spiked into either pH 6.5 phosphate buffer or 0.01 M HCl (approx pH 2.0) with the final
DMSO concentration being 1%. After 30 minutes had elapsed, samples were then analysed via Nephelometry to
determine a solubility range. See Bevan and Lloyd (2000) Anal Chem, 72:1781-1787. […]
In Vitro Intrinsic Clearance […]
as §21, §22

[8] = system: Staphylococcus aureus NCTC 13373 (mecA-positive; methicillin-resistant); experiment: In vitro antibacterial activity, MIC (UCL School of Pharmacy assay), MRSA; type: cell-based; conditions: for MIC: Staphylococcus aureus
How it was run: as §1

[9] = human plasma, NEU, read-out: Human PPB (NEU) (converted)
[10] = 0.01 M HCl, simulated gastric fluid, pH 2.0, read-out: Sol (pH 2.0) (Monash)
[11] = pH 6.5 phosphate buffer, pH 6.5, aqueous buffer, read-out: Sol (pH 6.5) (Monash)
[12] = NADPH, read-out: CLint, in vitro

c1ccc(-c2nc3n(c2-c2ccc4sccc4c2)CCC3)nc1 [OSA_000822]
MIC ([1]; read-out: MSSA MIC (UCL)): 4 µg/mL (≈ 12.6 µM) | Aqueous Solubility (NEU) ([2]; NEU): 3 µM | MIC ([3]; read-out: VRE MIC (UCL)): 8 µg/mL (≈ 25.2 µM) | HLM Clint (Monash) ([4]; Monash): 72 µL/min/mg | HLM t1/2 (Monash) ([4]; Monash): 24 min | fraction unbound [5, 9]: 0.023 | RLM Clint (Monash) ([6]; Monash): 503 µL/min/mg | RLM t1/2 (Monash) ([6]; Monash): 3 min | solubility kinetic at 30 min [7, 10]: 50 to 100 µg/mL (≈ 158 to 315 µM) | solubility kinetic at 30 min [7, 11]: 12.5 to 25 µg/mL (≈ 39.4 to 78.8 µM) | MIC ([8]; UCL, read-out: MRSA MIC (UCL)): 4 µg/mL (≈ 12.6 µM)

c1ccc(-c2nc3n(c2-c2ccc4occc4c2)CCC3)nc1 [compound 821]
MIC ([1]; read-out: MSSA MIC (UCL)): 2 µg/mL (≈ 6.64 µM) | solubility ([2]; NEU, read-out: Aqueous Solubility (NEU)): 117 µM (≈ 35.3 µg/mL) | MIC ([3]; read-out: VRE MIC): 2 µg/mL (≈ 6.64 µM) | microsomal CLint at 1 µM ([4]; Monash, read-out: HLM Clint (Monash)): 51 µL/min/mg | half-life at 1 µM ([4]; Monash, read-out: HLM t1/2 (Monash)): 34 min | fraction unbound [5, 9]: 0.028 | microsomal CLint at 1 µM ([6]; Monash, read-out: RLM Clint (Monash)): 72 µL/min/mg | half-life at 1 µM ([6]; Monash, read-out: RLM t1/2 (Monash)): 24 min | solubility kinetic at 30 min [7, 10]: > 100 µg/mL | solubility kinetic at 30 min [7, 11]: 25 to 50 µg/mL (≈ 83 to 166 µM) | MIC ([8]; 16 h, read-out: MRSA MIC): 4 µg/mL (≈ 13.3 µM) | MIC ([8]; UCL, read-out: MRSA MIC (UCL)): 2 µg/mL (≈ 6.64 µM) | MIC ([8]; read-out: MRSA MIC): 2 µg/mL (≈ 6.64 µM)

c1ccc(-c2nc3n(c2-c2ccc4sccc4c2)CCC3)nc1 [compound 822]
MIC ([1]; read-out: MSSA MIC): 4 µg/mL (≈ 12.6 µM) | solubility ([2]; read-out: Aqueous Solubility): 3 µM (≈ 0.952 µg/mL) | MIC ([3]; read-out: VRE MIC): 8 µg/mL (≈ 25.2 µM) | microsomal CLint at 1 µM [4, 12]: 72 µL/min/mg | half-life at 1 µM ([4]; NADPH, read-out: T1/2): 24 min | fraction unbound ([5]; read-out: Human PPB (converted)): 0.023 | microsomal CLint at 1 µM [6, 12]: 503 µL/min/mg | half-life at 1 µM ([6]; NADPH, read-out: T1/2): 3 min | Sol 2.0 ([7]; 0.01 M HCl, approx pH 2.0): 50 to 100 µg/mL | Sol 6.5 ([7]; pH 6.5 phosphate buffer): 12.5 to 25 µg/mL | MRSA MIC [8]: 4 µg/mL | activity against MRSA, in words [8]: MRSA-active | MIC ([8]; 16 h, read-out: MRSA MIC): 2 µg/mL (≈ 6.3 µM) | MIC ([8]; read-out: MRSA MIC): 2 µg/mL (≈ 6.3 µM)
